The results in this text go back to PMC8286840, “Identifying SARS-CoV-2 antiviral compounds by screening for small molecule inhibitors of Nsp3 papain-like protease” (Biochemical Journal, 2021).

Molecules are shown by their SMILES. Counter-ions that a name gives are not always drawn. Like-named read-outs stand apart in the source and are kept apart here.

Experiment [1] deals with T1, SARS-CoV-2 PLpro (nsp3 1564–1878) (Severe acute respiratory syndrome coronavirus 2, UniProt P0DTD1). Briefly: biochemical. The note with it: high concentration screen, read-out: % of control remaining. The arrangement: FRET-quenched peptide (Pro3) cleavage by PLpro, 10 min pre-incubation, slope over 20 min, normalised to no-compound control.
Experiment [2] concerns the target T1, SARS-CoV-2 PLpro (nsp3 1564–1878). Briefly: biochemical. The arrangement: FRET-quenched peptide (Pro3) cleavage by PLpro, 10 min pre-incubation, slope over 20 min, normalised to no-compound control. The note with it: low concentration screen, read-out: % of control remaining.

With `CCCCC/C=C\C/C=C\C/C=C\C[C@H]1O[C@H]1CCCC(=O)O` [5,6-Epoxyeicosatrienoic acid], in experiment [1] (Well no.=4383), the remaining activity at 3.75 µM turned out to be 103%. In addition, the remaining activity at 1.25 µM in experiment [2] (Well no.=4383) was 105%.

As for `O=C(Nc1ccc(Cl)cc1)Nc1cccc(-c2cccc(N3CCCC3)n2)c1` [PSNCBAM-1], the remaining activity at 3.75 µM in experiment [1] (Well no.=5820) came to 97%. Also, in experiment [2] (Well no.=5820), the remaining activity at 1.25 µM was 105%.

Take `OCc1cc(C(O)CNCCCCCCOCCCCc2ccccc2)ccc1O` (stereo not drawn) [Salmeterol]: the remaining activity at 3.75 µM in experiment [1] (Well no.=1414) was found to be 99.5%. For the same molecule, the remaining activity at 1.25 µM in experiment [2] (Well no.=1414) came out at 98.7%.

Regarding `CN(C)[C@@H]1C(O)=C(C(N)=O)C(=O)[C@@]2(O)C(O)=C3C(=O)c4c(O)cccc4[C@@](C)(O)[C@H]3[C@H](O)[C@@H]12` [Oxytetracycline dihydrate], the remaining activity at 3.75 µM in experiment [1] (Well no.=4718) turned out to be 99.6%. Further, the remaining activity at 1.25 µM in experiment [2] (Well no.=4718) was 102%.

On to `CC(C)(C)NC[C@H](O)COc1nsnc1N1CCOCC1` [(S)-Timolol maleate], for which the remaining activity at 3.75 µM in experiment [1] (Well no.=1739) was 97.3%. In addition, the remaining activity at 1.25 µM in experiment [2] (Well no.=1739) turned out to be 98.8%.

Consider `CNCC[C@@H](Oc1ccccc1C)c1ccccc1` [Tomoxetine], for which the remaining activity at 3.75 µM in experiment [1] (Well no.=1182) worked out at 95.7%. For the same molecule, the remaining activity at 1.25 µM in experiment [2] (Well no.=1182) turned out to be 99.4%.

Take `C[C@@H]1CN([C@H]2CC[C@](C#N)(c3ccc(F)cc3)CC2)CC[C@]1(C(=O)O)c1ccccc1` [Levocabastine.HCl]: in experiment [1] (Well no.=2058), the remaining activity at 3.75 µM came to 99.2%. In experiment [2] (Well no.=2058), the remaining activity at 1.25 µM was determined as 97.6%.

On to `Cc1ccccc1CNc1ncnc2c1ncn2[C@@H]1O[C@H](CO)[C@@H](O)[C@H]1O` [Metrifudil], for which, in experiment [1] (Well no.=851), the remaining activity at 3.75 µM was found to be 96.8%. Also, the remaining activity at 1.25 µM in experiment [2] (Well no.=851) came to 95.7%.

Turning to `O=C(C[S+]([O-])C(c1ccccc1)c1ccccc1)NO` (stereo not drawn) [Adrafinil], the remaining activity at 3.75 µM in experiment [1] (Well no.=6233) was determined as 94.6%. Also, in experiment [2] (Well no.=6233), the remaining activity at 1.25 µM is 102%.

Take `Cn1c(=N)ccn([C@@H]2O[C@H](CO)[C@@H](O)[C@H]2O)c1=O` [3-Methylcytidine]: the remaining activity at 3.75 µM in experiment [1] (Well no.=7960) is 98.7%. For the same molecule, the remaining activity at 1.25 µM in experiment [2] (Well no.=7960) was 97.2%.

Take `C[C@H](NC(=O)CC=C1NC(=O)c2ccccc2N1)c1ccccc1` [(S)-3-(4-oxo-3,4-dihydroquinazolin-2(1H)-ylidene)-N-(1-phenylethyl)propanamide]: the remaining activity at 3.75 µM in experiment [1] (Well no.=6083) is 95.2%. Besides, in experiment [2] (Well no.=6083), the remaining activity at 1.25 µM amounted to 95.2%.

Take `CC(=O)NCCc1c(Cc2ccccc2)[nH]c2ccccc12` [Luzindole]: in experiment [1] (Well no.=5524), the remaining activity at 3.75 µM was determined as 96.8%. The remaining activity at 1.25 µM in experiment [2] (Well no.=5524) stood at 92.5%.

Regarding `O=C1CC2(CCCC2)CC(=O)N1CCCCN1CCN(c2ncccn2)CC1` [Buspirone (hydrochloride)], the remaining activity at 3.75 µM in experiment [1] (Well no.=8249) amounted to 99.1%. The remaining activity at 1.25 µM in experiment [2] (Well no.=8249) worked out at 101%.

For `O=[N+]([O-])c1ccc(Nc2nc(N3CCOCC3)nc(N3CCOCC3)n2)cc1` [4,6-di(4-morpholinyl)-N-(4-nitrophenyl)-1,3,5-triazin-2-amine], the remaining activity at 3.75 µM in experiment [1] (Well no.=6018) is 92.3%. Further, the remaining activity at 1.25 µM in experiment [2] (Well no.=6018) was determined as 94.4%.

For `Cc1ccc2nc(CN(CCN(Cc3nc4ccc(C)cc4[nH]3)Cc3nc4ccc(C)cc4[nH]3)Cc3nc4ccc(C)cc4[nH]3)[nH]c2c1` [NSC348884], in experiment [1] (Well no.=6442), the remaining activity at 3.75 µM turned out to be 98.1%. Besides, the remaining activity at 1.25 µM in experiment [2] (Well no.=6442) amounted to 105%.

In the case of `Oc1cc(O)c2c(c1)O[C@H](c1cc(O)c(O)c(O)c1)[C@H](O)C2` [Epigallocatechin], the remaining activity at 3.75 µM in experiment [1] (Well no.=3277) came to 101%. Besides, the remaining activity at 1.25 µM in experiment [2] (Well no.=3277) is 102%.

As to `O=C1C(O)=C([C@H]2CC[C@H](c3ccc(Cl)cc3)CC2)C(=O)c2ccccc21` [Atovaquone], the remaining activity at 3.75 µM in experiment [1] (Well no.=1838) worked out at 94.9%. Besides, in experiment [2] (Well no.=1838), the remaining activity at 1.25 µM came out at 92.3%.

Take `Nc1ncnc2nc[nH]c12` [Adenine sulfate]: the remaining activity at 3.75 µM in experiment [1] (Well no.=5006) stood at 85.9%. Besides, the remaining activity at 1.25 µM in experiment [2] (Well no.=5006) was 97.9%.

As for `O=C(O)[C@H]1CCCN1` [(R)-pyrrolidine-2-carboxylic acid], the remaining activity at 3.75 µM in experiment [1] (Well no.=8700) was found to be 101%. In experiment [2] (Well no.=8700), the remaining activity at 1.25 µM was 106%.

Regarding `CN(C/C=C/C#CC(C)(C)C)Cc1cccc2ccccc12` [Terbinafine], the remaining activity at 3.75 µM in experiment [1] (Well no.=1580) amounted to 97.8%. Besides, in experiment [2] (Well no.=1580), the remaining activity at 1.25 µM is 95%.

`N=C(N)N1CCc2ccccc2C1` [Debrisoquin]: the remaining activity at 3.75 µM in experiment [1] (Well no.=1905) is 99.9%. Also, the remaining activity at 1.25 µM in experiment [2] (Well no.=1905) is 99.9%.

On to `COc1ccc(/C=C/C(=O)Nc2ccccc2C(=O)O)cc1OC` [Tranilast], for which the remaining activity at 3.75 µM is 94.6% in experiment [1] (Well no.=1519), 96.1% in experiment [1] (Well no.=1807) and 97.4% in experiment [1] (Well no.=6317). In addition, the figures for the remaining activity at 1.25 µM in experiment [2] (Well no.=1519), in experiment [2] (Well no.=1807) and in experiment [2] (Well no.=6317) were 95.4%, 96.3% and 104%, respectively.

In the case of `CCCCCCCCCCCCCCC[C@@H](O)[C@H](CO)NC(=O)CCCCCCC` [C8 Dihydroceramide], the remaining activity at 3.75 µM in experiment [1] (Well no.=4395) amounted to 99.1%. Also, the remaining activity at 1.25 µM in experiment [2] (Well no.=4395) was determined as 99.8%.

As for `c1cnc(N2CCN(Cc3ccc4c(c3)OCO4)CC2)nc1` [Piribedil.2HCl], in experiment [1] (Well no.=1841), the remaining activity at 3.75 µM amounted to 95.4%. Besides, the remaining activity at 1.25 µM in experiment [2] (Well no.=1841) is 96.6%.

`COC(=O)Nc1nc2cc(C(=O)c3ccc(F)cc3)ccc2[nH]1` [Flubendazole]: in experiment [1] (Well no.=2128), the remaining activity at 3.75 µM stood at 103%. For the same molecule, in experiment [2] (Well no.=2128), the remaining activity at 1.25 µM amounted to 101%.

In the case of `COc1ccccc1Oc1c(NS(=O)(=O)c2ccc(C(C)(C)C)cc2)nc(-c2ncccn2)nc1OCCO` [Bosentan Hydrate], the remaining activity at 3.75 µM in experiment [1] (Well no.=5273) stood at 95.6%. In experiment [2] (Well no.=5273), the remaining activity at 1.25 µM amounted to 97.9%.

On to `CCCCCCCC/C=C\CCCCCCCC(=O)OCC(CO)OC(=O)CCCCCCC/C=C\CCCCCCCC` (stereo not drawn) [1,2-Dioleoyl-glycerol (18:1)], for which, in experiment [1] (Well no.=4478), the remaining activity at 3.75 µM is 100%. Further, the remaining activity at 1.25 µM in experiment [2] (Well no.=4478) stood at 96%.

Turning to `Cc1ccc(O)c([C@H](CCN(C(C)C)C(C)C)c2ccccc2)c1` [Tolterodine tartrate (Detrol LA)], in experiment [1] (Well no.=4918), the remaining activity at 3.75 µM turned out to be 94.6%. For the same molecule, the remaining activity at 1.25 µM in experiment [2] (Well no.=4918) stood at 98%.

Consider `CCCCCCCCCCCCC/C=C/[C@@H](O)[C@@H](N)CO` [D-erythro-Sphingosine], for which, in experiment [1] (Well no.=7207), the remaining activity at 3.75 µM worked out at 96.9%. Moreover, the remaining activity at 1.25 µM in experiment [2] (Well no.=7207) is 100%.

As to `CCC(C)(Oc1ccc(C2(c3ccc(OC(C)(CC)C(=O)O)cc3)CCCCC2)cc1)C(=O)O` (stereo not drawn) [Clinofibrate], the remaining activity at 3.75 µM in experiment [1] (Well no.=5332) came out at 98.1%. For the same molecule, the remaining activity at 1.25 µM in experiment [2] (Well no.=5332) came out at 96.6%.

As for `C1N2CN3CN1CN(C2)C3` [Methenamine (Mandelamine)], in experiment [1] (Well no.=4975), the remaining activity at 3.75 µM stood at 96.7%. The remaining activity at 1.25 µM in experiment [2] (Well no.=4975) turned out to be 96.3%.
